# Patent publication US8192962B2, “Processes for detecting toxic substances” (Daikin Industries, Ltd., priority 2001, dated 2012)
# System: Transport facilitation protein genes
# Experiment: DNA chip mRNA expression in yeast, transport facilitation protein genes (Table 5)
# Format: cell-based, Saccharomyces cerevisiae S288C
# Summary of the method: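 Expression change after 2 h toxicant exposure (growth-inhibiting, sub-lethal) of log-phase S. cerevisiae S288C at 25° C. Oligo-dT-purified mRNA was labeled with Cy3-dUTP or Cy5-dUTP and hybridized >12 h at 65° C. to a genome-wide chip; ratio of scanned fluorescence to control.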
substance,measurement,setting,value
Na2As [(1)],The level of expressed mRNA in the presence of chemical substance/The level of expressed mRNA in the absence of chemical substance,yeast gene YBL030C,1.0
same,The level of expressed mRNA in the presence of chemical substance/The level of expressed mRNA in the absence of chemical substance,yeast gene YBL099W,0.8
same,The level of expressed mRNA in the presence of chemical substance/The level of expressed mRNA in the absence of chemical substance,yeast gene YBR052C,1.6
same,The level of expressed mRNA in the presence of chemical substance/The level of expressed mRNA in the absence of chemical substance,yeast gene YBR068C,1.1
same,The level of expressed mRNA in the presence of chemical substance/The level of expressed mRNA in the absence of chemical substance,yeast gene YBR127C,0.8
same,The level of expressed mRNA in the presence of chemical substance/The level of expressed mRNA in the absence of chemical substance,yeast gene YBR132C,0.9
same,The level of expressed mRNA in the presence of chemical substance/The level of expressed mRNA in the absence of chemical substance,yeast gene YBR207W,0.8
same,The level of expressed mRNA in the presence of chemical substance/The level of expressed mRNA in the absence of chemical substance,yeast gene YBR293W,1.9
same,The level of expressed mRNA in the presence of chemical substance/The level of expressed mRNA in the absence of chemical substance,yeast gene YBR294W,6.3
same,The level of expressed mRNA in the presence of chemical substance/The level of expressed mRNA in the absence of chemical substance,yeast gene YBR295W,1.4
same,The level of expressed mRNA in the presence of chemical substance/The level of expressed mRNA in the absence of chemical substance,yeast gene YBR298C,1.1
same,The level of expressed mRNA in the presence of chemical substance/The level of expressed mRNA in the absence of chemical substance,yeast gene YCL025C,1.1
same,The level of expressed mRNA in the presence of chemical substance/The level of expressed mRNA in the absence of chemical substance,yeast gene YCL038C,1.6
same,The level of expressed mRNA in the presence of chemical substance/The level of expressed mRNA in the absence of chemical substance,yeast gene YCR024C-A,0.8
same,The level of expressed mRNA in the presence of chemical substance/The level of expressed mRNA in the absence of chemical substance,yeast gene YCR037C,0.7
same,The level of expressed mRNA in the presence of chemical substance/The level of expressed mRNA in the absence of chemical substance,yeast gene YCR098C,1.6
same,The level of expressed mRNA in the presence of chemical substance/The level of expressed mRNA in the absence of chemical substance,yeast gene YDL128W,0.8
same,The level of expressed mRNA in the presence of chemical substance/The level of expressed mRNA in the absence of chemical substance,yeast gene YDL198C,1.4
same,The level of expressed mRNA in the presence of chemical substance/The level of expressed mRNA in the absence of chemical substance,yeast gene YDL210W,1.2
same,The level of expressed mRNA in the presence of chemical substance/The level of expressed mRNA in the absence of chemical substance,yeast gene YDL245C,1.0
same,The level of expressed mRNA in the presence of chemical substance/The level of expressed mRNA in the absence of chemical substance,yeast gene YDR038C,0.6
same,The level of expressed mRNA in the presence of chemical substance/The level of expressed mRNA in the absence of chemical substance,yeast gene YDR039C,0.6
same,The level of expressed mRNA in the presence of chemical substance/The level of expressed mRNA in the absence of chemical substance,yeast gene YDR086C,1.3
same,The level of expressed mRNA in the presence of chemical substance/The level of expressed mRNA in the absence of chemical substance,yeast gene YDR270W,0.7
same,The level of expressed mRNA in the presence of chemical substance/The level of expressed mRNA in the absence of chemical substance,yeast gene YDR298C,1.3
same,The level of expressed mRNA in the presence of chemical substance/The level of expressed mRNA in the absence of chemical substance,yeast gene YDR342C,2.8
same,The level of expressed mRNA in the presence of chemical substance/The level of expressed mRNA in the absence of chemical substance,yeast gene YDR343C,1.2
same,The level of expressed mRNA in the presence of chemical substance/The level of expressed mRNA in the absence of chemical substance,yeast gene YDR345C,0.8
same,The level of expressed mRNA in the presence of chemical substance/The level of expressed mRNA in the absence of chemical substance,yeast gene YDR387C,0.8
same,The level of expressed mRNA in the presence of chemical substance/The level of expressed mRNA in the absence of chemical substance,yeast gene YDR497C,0.7
same,The level of expressed mRNA in the presence of chemical substance/The level of expressed mRNA in the absence of chemical substance,yeast gene YEL027W,1.2
same,The level of expressed mRNA in the presence of chemical substance/The level of expressed mRNA in the absence of chemical substance,yeast gene YEL063C,0.7
same,The level of expressed mRNA in the presence of chemical substance/The level of expressed mRNA in the absence of chemical substance,yeast gene YEL065W,0.3
same,The level of expressed mRNA in the presence of chemical substance/The level of expressed mRNA in the absence of chemical substance,yeast gene YER053C,1.6
same,The level of expressed mRNA in the presence of chemical substance/The level of expressed mRNA in the absence of chemical substance,yeast gene YFL011W,1.2
same,The level of expressed mRNA in the presence of chemical substance/The level of expressed mRNA in the absence of chemical substance,yeast gene YFL041W,0.7
same,The level of expressed mRNA in the presence of chemical substance/The level of expressed mRNA in the absence of chemical substance,yeast gene YFL050C,0.7
same,The level of expressed mRNA in the presence of chemical substance/The level of expressed mRNA in the absence of chemical substance,yeast gene YFL054C,1.6
same,The level of expressed mRNA in the presence of chemical substance/The level of expressed mRNA in the absence of chemical substance,yeast gene YGL006W,2.5
same,The level of expressed mRNA in the presence of chemical substance/The level of expressed mRNA in the absence of chemical substance,yeast gene YGL008C,0.6
same,The level of expressed mRNA in the presence of chemical substance/The level of expressed mRNA in the absence of chemical substance,yeast gene YGL104C,0.8
same,The level of expressed mRNA in the presence of chemical substance/The level of expressed mRNA in the absence of chemical substance,yeast gene YGL167C,0.9
same,The level of expressed mRNA in the presence of chemical substance/The level of expressed mRNA in the absence of chemical substance,yeast gene YGL255W,0.7
same,The level of expressed mRNA in the presence of chemical substance/The level of expressed mRNA in the absence of chemical substance,yeast gene YGR055W,2.5
same,The level of expressed mRNA in the presence of chemical substance/The level of expressed mRNA in the absence of chemical substance,yeast gene YGR065C,0.8
same,The level of expressed mRNA in the presence of chemical substance/The level of expressed mRNA in the absence of chemical substance,yeast gene YGR082W,1.0
same,The level of expressed mRNA in the presence of chemical substance/The level of expressed mRNA in the absence of chemical substance,yeast gene YGR096W,1.5
same,The level of expressed mRNA in the presence of chemical substance/The level of expressed mRNA in the absence of chemical substance,yeast gene YGR138C,1.1
same,The level of expressed mRNA in the presence of chemical substance/The level of expressed mRNA in the absence of chemical substance,yeast gene YGR191W,0.8
same,The level of expressed mRNA in the presence of chemical substance/The level of expressed mRNA in the absence of chemical substance,yeast gene YGR197C,1.1
